From patent publication US9493438B2, “4,4-difluoro-piperidine-compounds” (ROTTAPHARM BIOTECH S.R.L., priority 2012, dated 2016) come the findings set out here.

For this test, the target named is T1, human OX1 receptors (Homo sapiens, UniProt O43613).
T1 construct: expressed in transfected cells; host or cells: CHO cells
T1 sequence (O43613 1-425): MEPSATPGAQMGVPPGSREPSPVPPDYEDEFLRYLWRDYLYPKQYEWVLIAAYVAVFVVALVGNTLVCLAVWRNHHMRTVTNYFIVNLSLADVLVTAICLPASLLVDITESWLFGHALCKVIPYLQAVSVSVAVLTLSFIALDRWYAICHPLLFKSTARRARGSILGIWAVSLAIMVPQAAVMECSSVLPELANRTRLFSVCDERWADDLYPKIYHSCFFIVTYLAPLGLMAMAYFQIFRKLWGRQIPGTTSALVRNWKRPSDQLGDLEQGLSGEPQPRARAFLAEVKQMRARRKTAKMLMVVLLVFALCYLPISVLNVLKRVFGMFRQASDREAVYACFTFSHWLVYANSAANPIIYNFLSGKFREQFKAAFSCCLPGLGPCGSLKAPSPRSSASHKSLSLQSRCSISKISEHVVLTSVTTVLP
As to the kind of experiment: antagonistic activity against human OX1 receptor, [Ca2+]i fluorimetry in transfected CHO cells. The format is cell-based. To be noted: CHO cells transfected with human recombinant OX1; activated with orexin-A 3 nM; pKb = co-logarithm of apparent dissociation constant (modified Cheng Prusoff). The procedure: Thus the plate was loaded with the calcium dye (Fluo-4NW/probenecid in HBSS, Hepes 20 mM, pH 7.4; Invitrogen) at 37° C. for 60 min. Afterward the temperature was equilibrated at 22° C. for 15 min and the [Ca2+]i measured directly on the plate by using a fluorescent plate reader (CeliLux Perkin Elmer).
Invention compounds were dissolved in DMSO, diluted in HBSS (DMSO, 0.3% final) and added to the wells. After 5 min CHO cells were activated with orexin-A, 3 nM while HEK-293 cells were activated with orexin-B, 10 nM. […] The antagonistic activity has been expressed as pKb (co-logarithm of the apparent dissociation constant calculated by using the modified Cheng Prusoff equation). The results are expressed as percent of control specific […] response ((measured specific response/control specific agonist response)×100) obtained in the presence of the test compounds.
The IC50 values (concentration causing a half-maximal inhibition of the control specific agonist response) were determinated by non-linear regression analysis of the concentration curves generated with mean replicate values using hill equation curve fitting. The IC50 values are obtained by the arithmetical mean of at least two experiments.
With `Cc1nc(C(=O)N2CCC(F)(F)CC2CNc2ccc(Cl)cn2)c(-c2ccccc2)s1` (racemic) [Compound 1, (RS)(2-(((5-chloropyridin-2-yl)amino)methyl)-4,4-difluoropiperidin-1-yl)(2-methyl-5-phenylthiazol-4-yl)methanone], the Kb was 10 nM. Consider `Cc1ccc(-n2nccn2)c(C(=O)N2CCC(F)(F)CC2CNc2ccc(C(F)(F)F)cn2)c1` (racemic) [Compound 5, (RS)(4,4-difluoro-2-(((5-(trifluoromethyl)pyridin-2-yl)amino)methyl)piperidin-1-yl)(5-methyl-2-(2H-1,2,3-triazol-2-yl)phenyl)methanone], for which the Kb was 5.01 nM. For `Cc1ccc(-c2ncccn2)c(C(=O)N2CCC(F)(F)CC2CNc2ccc(Cl)cn2)c1` (racemic) [Compound 6, (RS)(2-(((5-chloropyridin-2-yl)amino)methyl)-4,4-difluoropiperidin-1-yl)(5-methyl-2-(pyrimidin-2-yl)phenyl)methanone], the Kb was 5.01 nM. For `CCOc1ccccc1C(=O)N1CCC(F)(F)CC1CNc1ccc(Cl)cn1` (racemic) [Compound 10, (RS)(2-(((5-chloropyridin-2-yl)amino)methyl)-4,4-difluoropiperidin-1-yl)(2-ethoxyphenyl)methanone], the Kb is 7.94 nM.

With `O=C(c1ccccc1OCC1CC1)N1CCC(F)(F)CC1CNc1ccc(Cl)cn1` (racemic) [Compound 12, (RS)(2-(((5-chloropyridin-2-yl)amino)methyl)-4,4-difluoropiperidin-1-yl)(2-(cyclopropylmethoxy)phenyl)methanone], the Kb is 2 nM. As for `O=C(c1ccccc1OC1CCCC1)N1CCC(F)(F)CC1CNc1ccc(Cl)cn1` (racemic) [Compound 13, (RS)(2-(((5-chloropyridin-2-yl)amino)methyl)-4,4-difluoropiperidin-1-yl)(2-(cyclopentyloxy)phenyl)methanone], the Kb is 100 nM.

In the case of `Cc1ccc(-c2ncccn2)c(C(=O)N2CCC(F)(F)CC2CNc2ccc(Cl)cn2)n1` (racemic) [Compound 14, (RS)(2-(((5-chloropyridin-2-yl)amino)methyl)-4,4-difluoropiperidin-1-yl)(6-methyl-3-(pyrimidin-2-yl)pyridin-2-yl)methanone], the Kb was 2.51 nM. Regarding `Cc1cnc(-c2ncccn2)c(C(=O)N2CCC(F)(F)CC2CNc2ccc(Cl)cn2)c1` (racemic) [Compound 15, (RS)(2-(((5-chloropyridin-2-yl)amino)methyl)-4,4-difluoropiperidin-1-yl)(5-methyl-2-(pyrimidin-2-yl)pyridin-3-yl)methanone], the antagonist dissociation constant (Kb) is 126 nM. As to `O=C(c1cc(Cl)ccc1-c1ncccn1)N1CCC(F)(F)CC1CNc1ccc(Cl)cn1` (racemic) [Compound 19, (RS)(5-chloro-2-(pyrimidin-2-yl)phenyl)(2-(((5-chloropyridin-2-yl)amino)methyl)-4,4-difluoropiperidin-1-yl)methanone], the antagonist dissociation constant (Kb) was 5.01 nM. The result for `O=C(c1ccccc1OCc1ccccc1)N1CCC(F)(F)CC1CNc1ccc(Cl)cn1` (racemic) [Compound 21, (RS)(2-(benzyloxy)phenyl)(2-(((5-chloropyridin-2-yl)amino)methyl)-4,4-difluoropiperidin-1-yl)methanone] reads 5.01 nM; that for `O=C(c1nccc2ccccc12)N1CCC(F)(F)CC1CNc1ccc(Cl)cn1` (racemic) [Compound 22, (RS)(2-(((5-chloropyridin-2-yl)amino)methyl)-4,4-difluoropiperidin-1-yl)(isoquinolin-1-yl)methanone], 0.631 nM; that for `O=C(c1ccncc1-c1ncccn1)N1CCC(F)(F)CC1CNc1ccc(Cl)cn1` (racemic) [Compound 28, (RS)(2-(((5-chloropyridin-2-yl)amino)methyl)-4,4-difluoropiperidin-1-yl)(3-(pyrimidin-2-yl)pyridin-4-yl)methanone], 15.8 nM. To `Cc1ccc(-c2ncccn2)c(C(=O)N2CCC(F)(F)CC2CNc2ccc(C#N)cn2)n1` (racemic) [Compound 29] belongs 15.8 nM; to `Cc1ncc(-c2ccc(F)cc2C(=O)N2CCC(F)(F)CC2CNc2ccc(C(F)(F)F)cn2)cn1` (racemic) [Compound 30, (RS)(4,4-difluoro-2-(((5-(trifluoromethyl)pyridin-2-yl)amino)methyl)piperidin-1-yl)(5-fluoro-2-(2-methylpyrimidin-5-yl)phenyl)methanone], 25.1 nM; to `O=C(c1nccc2ccccc12)N1CCC(F)(F)CC1CNc1ncc(C(F)(F)F)cc1F` (racemic) [Compound 33, (RS)(4,4-difluoro-2-(((3-fluoro-5-(trifluoromethyl)pyridin-2-yl)amino)methyl)piperidin-1-yl)(isoquinolin-1-yl)methanone], 2 nM.

For `O=C(c1nccc2ccccc12)N1CCC(F)(F)CC1CNc1ccc(C(F)(F)F)cn1` (racemic) [Compound 34, (RS)(4,4-difluoro-2-(((5-(trifluoromethyl)pyridin-2-yl)amino)methyl)piperidin-1-yl)(isoquinolin-1-yl)methanone], the Kb is 2.51 nM.

Consider `O=C(c1ccnc2ccccc12)N1CCC(F)(F)CC1CNc1ccc(C(F)(F)F)cn1` (racemic) [Compound 35], for which the Kb is 31.6 nM. To `Cc1ccc(-c2ncccn2)c(C(=O)N2CCC(F)(F)CC2COc2ccc(C(F)(F)F)cn2)n1` (racemic) [Compound 48, (±)(4,4-difluoro-2-(((5-(trifluoromethyl)pyridine-2-yl)oxy)methyl)piperidin-1-yl)(6-methyl-3-(pyrimidin-2-yl)pyridin-2-yl)methanone] belongs 7.94 nM.

As for `Cc1ccc(-c2cccnc2)c(C(=O)N2CCC(F)(F)CC2CNc2ccc(C(F)(F)F)cn2)n1` (racemic) [Compound 50], the Kb is 5.01 nM. In the case of `Cc1ccc(-c2ccncc2)c(C(=O)N2CCC(F)(F)CC2CNc2ccc(C(F)(F)F)cn2)n1` (racemic) [Compound 52, (RS) (4,4-difluoro-2-(((5-(trifluoromethyl)pyridin-2-yl)amino)methyl)piperidin-1-yl)(6-methyl-[3,4′-bipyridin]-2-yl)methanone], the Kb is 39.8 nM. Take `O=C(c1ncccc1-c1ncccn1)N1CCC(F)(F)CC1CNc1ccc(C(F)(F)F)cn1` (racemic) [Compound 54, (RS) (4,4-difluoro-2-(((5-(trifluoromethyl)pyridin-2-yl)amino)methyl)piperidin-1-yl)(3-(pyrimidin-2-yl)pyridin-2-yl)methanone]: the Kb is 3.16 nM.

For the compound `Cc1nc(C(=O)N2CCC(F)(F)CC2CNc2ccc(Cl)cn2)c(-c2ccccc2)s1` (single isomer, unassigned; isomer a) [Compound 2, (2-(((5-chloropyridin-2-yl)amino)methyl)-4,4-difluoropiperidin-1-yl)(2-methyl-5-phenylthiazol-4-yl)methanone (isomer A)], the Kb was 2 nM. The result for `Cc1ccc(-c2ncccn2)c(C(=O)N2CCC(F)(F)CC2CNc2ccc(Cl)cn2)c1` (single isomer, unassigned; isomer a) [Compound 7, (2-(((5-chloropyridin-2-yl)amino)methyl)-4,4-difluoropiperidin-1-yl)(5-methyl-2-(pyrimidin-2-yl)phenyl)methanone (isomer A)] reads 2.51 nM; that for `Cc1ccc(-n2nccn2)c(C(=O)N2CCC(F)(F)CC2CNc2ccc(Cl)cn2)n1` (single isomer, unassigned; isomer a) [Compound 8, (2-(((5-chloropyridin-2-yl)amino)methyl)-4,4-difluoropiperidin-1-yl)(6-methyl-3-(2H-1,2,3-triazol-2-yl)pyridin-2-yl)methanone (isomer A)], 1.58 nM.

In the case of `O=C(c1nccc2ccccc12)N1CCC(F)(F)CC1CNc1ccc(Cl)cn1` (single isomer, unassigned; isomer a) [Compound 23, (2-(((5-chloropyridin-2-yl)amino)methyl)-4,4-difluoropiperidin-1-yl)(isoquinolin-1-yl)methanone (isomer A)], the Kb was 79.4 nM.

For the compound `Cc1ccc(-c2ccccc2)c(C(=O)N2CCC(F)(F)CC2CNc2ccc(C(F)(F)F)cn2)n1` (single isomer, unassigned; isomer a) [Compound 37, (4,4-difluoro-2-(((5-(trifluoromethyl)pyridin-2-yl)amino)methyl)piperidin-1-yl)(6-methyl-3-phenylpyridin-2-yl)methanone (isomer A)], the Kb was 200 nM. The result for `O=C(c1nc(C(F)(F)F)ccc1-c1ncccn1)N1CCC(F)(F)CC1CNc1ccc(C(F)(F)F)cn1` (single isomer, unassigned; isomer a) [Compound 40, (4,4-difluoro-2-(((5-(trifluoromethyl)pyridin-2-yl)amino)methyl)piperidin-1-yl)(3-(pyrimidin-2-yl)-6-(trifluoromethyl)pyridin-2-yl)methanone (isomer A)] reads 63.1 nM.

The Kb is the affinity of an antagonist, worked out from how it opposes an agonist.
